Test system: yeast genes (expressed mRNA)
Assay: DNA chip measurement of expressed mRNA of yeast genes after culture with a toxic chemical substance
Type: cell-based, Saccharomyces cerevisiae S288C
How it was run: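 Two-hour exposure of growing S. cerevisiae S288C (YPD, 25° C) to a sublethal toxicant preceded RNA isolation. Fluorescent cDNA was hybridized to a whole-genome array; a treated-to-untreated signal ratio of two or more was taken as significant.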

COc1cc(CNC(=O)CCCCC=CC(C)C)ccc1O [(12), 8-Methyl-N-vanillyl-6-nonenamide]
The level of expressed mRNA in the presence of chemical substance/The level of expressed mRNA in the absence of chemical substance (yeast gene YFL024C, cultured two hours with substance): 0.8 | The level of expressed mRNA in the presence of chemical substance/The level of expressed mRNA in the absence of chemical substance (yeast gene YFL032W, cultured two hours with substance): 0.7 | The level of expressed mRNA in the presence of chemical substance/The level of expressed mRNA in the absence of chemical substance (yeast gene YGL001C): 0.9 | The level of expressed mRNA in the presence of chemical substance/The level of expressed mRNA in the absence of chemical substance (yeast gene YGL037C, cultured two hours with substance): 0.8 | The level of expressed mRNA in the presence of chemical substance/The level of expressed mRNA in the absence of chemical substance (yeast gene YGL047W, cultured two hours with substance): 1.1 | The level of expressed mRNA in the presence of chemical substance/The level of expressed mRNA in the absence of chemical substance (yeast gene YGL053W, cultured two hours with substance): 1.3 | The level of expressed mRNA in the presence of chemical substance/The level of expressed mRNA in the absence of chemical substance (yeast gene YGL062W, cultured for two hours with substance): 1.6 | The level of expressed mRNA in the presence of chemical substance/The level of expressed mRNA in the absence of chemical substance (yeast gene YGL104C): 1.1 | The level of expressed mRNA in the presence of chemical substance/The level of expressed mRNA in the absence of chemical substance (yeast gene YGL115W (stress protein genes)): 0.9 | The level of expressed mRNA in the presence of chemical substance/The level of expressed mRNA in the absence of chemical substance (yeast gene YGL117W, cultured two hours with substance): 1.5 | The level of expressed mRNA in the presence of chemical substance/The level of expressed mRNA in the absence of chemical substance (yeast gene YGL121C, cultured two hours with substance): 1.6 | The level of expressed mRNA in the presence of chemical substance/The level of expressed mRNA in the absence of chemical substance (yeast gene YGL136C, cultured two hours with substance): 1.1 | The level of expressed mRNA in the presence of chemical substance/The level of expressed mRNA in the absence of chemical substance (yeast gene YGL199C, cultured two hours with substance): 0.9 | The level of expressed mRNA in the presence of chemical substance/The level of expressed mRNA in the absence of chemical substance (yeast gene YGL209W): 1.3 | The level of expressed mRNA in the presence of chemical substance/The level of expressed mRNA in the absence of chemical substance (yeast gene YGR035C, cultured two hours with substance): 3.3 | The level of expressed mRNA in the presence of chemical substance/The level of expressed mRNA in the absence of chemical substance (yeast gene YGR055W, metabolism protein genes): 0.9 | The level of expressed mRNA in the presence of chemical substance/The level of expressed mRNA in the absence of chemical substance (yeast gene YGR101W, cultured two hours with substance): 1.0 | The level of expressed mRNA in the presence of chemical substance/The level of expressed mRNA in the absence of chemical substance (yeast gene YGR110W, cultured two hours with substance): 1.4 | The level of expressed mRNA in the presence of chemical substance/The level of expressed mRNA in the absence of chemical substance (yeast gene YGR130C, cultured two hours with substance): 0.7 | The level of expressed mRNA in the presence of chemical substance/The level of expressed mRNA in the absence of chemical substance (yeast gene YGR142W, cultured two hours with substance): 2.0 | The level of expressed mRNA in the presence of chemical substance/The level of expressed mRNA in the absence of chemical substance (yeast gene YGR146C, cultured two hours with substance): 1.4 | The level of expressed mRNA in the presence of chemical substance/The level of expressed mRNA in the absence of chemical substance (yeast gene YGR154C, cultured two hours with substance): 0.9 | The level of expressed mRNA in the presence of chemical substance/The level of expressed mRNA in the absence of chemical substance (yeast gene YGR221C, cultured two hours with substance): 1.6 | The level of expressed mRNA in the presence of chemical substance/The level of expressed mRNA in the absence of chemical substance (yeast gene YGR281W (transport facilitation protein gene)): 2.4 | The level of expressed mRNA in the presence of chemical substance/The level of expressed mRNA in the absence of chemical substance (yeast gene YGR282C): 1.3 | The level of expressed mRNA in the presence of chemical substance/The level of expressed mRNA in the absence of chemical substance (yeast gene YGR284C, cultured two hours with substance): 2.1 | The level of expressed mRNA in the presence of chemical substance/The level of expressed mRNA in the absence of chemical substance (yeast gene YHL038C, mitochondria-located protein gene, cultured two hours with substance): 1.6 | The level of expressed mRNA in the presence of chemical substance/The level of expressed mRNA in the absence of chemical substance (yeast gene YHL047C (transport facilitation protein gene)): 2.6 | The level of expressed mRNA in the presence of chemical substance/The level of expressed mRNA in the absence of chemical substance (yeast gene YHR029C, cultured two hours with substance): 1.5 | The level of expressed mRNA in the presence of chemical substance/The level of expressed mRNA in the absence of chemical substance (yeast gene YHR054C, cultured two hours with substance): 3.6 | The level of expressed mRNA in the presence of chemical substance/The level of expressed mRNA in the absence of chemical substance (yeast gene YHR111W, metabolism protein genes): 0.9 | The level of expressed mRNA in the presence of chemical substance/The level of expressed mRNA in the absence of chemical substance (yeast gene YHR138C, cultured two hours with substance): 1.8 | The level of expressed mRNA in the presence of chemical substance/The level of expressed mRNA in the absence of chemical substance (yeast gene YHR179W, cultured for two hours with substance): 2.2 | The level of expressed mRNA in the presence of chemical substance/The level of expressed mRNA in the absence of chemical substance (yeast gene YHR199C, cultured two hours with substance): 1.1 | The level of expressed mRNA in the presence of chemical substance/The level of expressed mRNA in the absence of chemical substance (yeast gene YHR209W, cultured two hours with substance): 1.0 | The level of expressed mRNA in the presence of chemical substance/The level of expressed mRNA in the absence of chemical substance (yeast gene YIL023C, cultured two hours with substance): 0.9 | The level of expressed mRNA in the presence of chemical substance/The level of expressed mRNA in the absence of chemical substance (yeast gene YIL024C, cultured two hours with substance): 0.7 | The level of expressed mRNA in the presence of chemical substance/The level of expressed mRNA in the absence of chemical substance (yeast gene YIL041W, cultured two hours with substance): 1.0 | The level of expressed mRNA in the presence of chemical substance/The level of expressed mRNA in the absence of chemical substance (yeast gene YIL077C, cultured two hours with the substance): 1.6 | The level of expressed mRNA in the presence of chemical substance/The level of expressed mRNA in the absence of chemical substance (yeast gene YIL087C, cultured two hours with substance): 1.1 | The level of expressed mRNA in the presence of chemical substance/The level of expressed mRNA in the absence of chemical substance (yeast gene YIL117C, cultured two hours with substance): 1.4 | The level of expressed mRNA in the presence of chemical substance/The level of expressed mRNA in the absence of chemical substance (yeast gene YIL154C): 1.1 | The level of expressed mRNA in the presence of chemical substance/The level of expressed mRNA in the absence of chemical substance (yeast gene YIL167W): 0.7 | The level of expressed mRNA in the presence of chemical substance/The level of expressed mRNA in the absence of chemical substance (yeast gene YJL020C, cultured two hours with substance): 0.7 | The level of expressed mRNA in the presence of chemical substance/The level of expressed mRNA in the absence of chemical substance (yeast gene YJL052W, cultured for two hours with substance): 2.4 | The level of expressed mRNA in the presence of chemical substance/The level of expressed mRNA in the absence of chemical substance (yeast gene YJL057C, cultured two hours with substance): 1.0 | The level of expressed mRNA in the presence of chemical substance/The level of expressed mRNA in the absence of chemical substance (yeast gene YJL066C, cultured two hours with substance): 1.0 | The level of expressed mRNA in the presence of chemical substance/The level of expressed mRNA in the absence of chemical substance (yeast gene YJL082W, cultured two hours with substance): 1.3 | The level of expressed mRNA in the presence of chemical substance/The level of expressed mRNA in the absence of chemical substance (yeast gene YJL108C, cultured two hours with substance): 0.4 | The level of expressed mRNA in the presence of chemical substance/The level of expressed mRNA in the absence of chemical substance (yeast gene YJL149W, cultured two hours with substance): 1.1

— US20100041089A1, “IMPROVED METHOD FOR DETECTING CHEMICAL […]” (priority 2006, published 2010)
